Reference: patent US11957682B2, “Compounds and methods for regulating, limiting, or inhibiting AVIL expression” (University of Virginia Patent Foundation, priority 2017, dated 2024)

How the values were obtained:
[1] = test system: astrocyte cells (non-cancer control); assay: IC50 for inhibiting cell growth in astrocyte cells (non-cancer control); format: cell-based, human; details: inhibition of cell growth
Description: (§1) Cell Culture. The rhabdomyosarcoma cell lines RH30, RH18, and RD were cultured in RPMI-1640 medium with 10% FBS. RH18 was a gift from Dr. P. J. Houghton. Glioblastoma cell line U87 cells were cultured in Minimum Essential Medium Eagle (MEM), supplemented with 1 mM sodium pyruvate, 1% nonessential amino acids, 0.15% sodium bicarbonate, and 10% fetal bovine serum (FBS); T98G cells were cultured in MEM with 10% FBS; A172 cells were cultured in Dulbecco's modified Eagle's medium (DMEM) with 4.5 g/L glucose, and supplemented with 10% FBS; U251 cells were cultured in Roswell Park Memorial Institute medium with 5% FBS. Immortalized human astrocytes (a kind gift from Dr. Russ Pieper, University of California San Francisco) were grown in DMEM/F12 with 4.5 g/L of glucose, supplemented with 10% FBS. All cells were grown at 37° C. in 5% CO2-[…]. All cell lines unless specified were originally obtained from ATCC. They were not further authenticated.
(§2) In this example, samples of glioblastoma cells (U87) and astrocyte cells (non-cancer control) were exposed various disclosed compounds to determine the effectiveness of the compounds for inhibiting cell growth.

[2] = test system: RH30 rhabdomyosarcoma cells; assay: Cell survival / crystal violet staining of RH30 cells; format: cell-based; details: 20 μM
Description: as §1
(§3) RH30 and RD are rhabdomyosarcoma cells. MSC is mesenchymal stem cells, as a non-cancer control.

[3] = test system: MSC mesenchymal stem cells (non-cancer control); assay: Cell survival / crystal violet staining of MSC cells; format: cell-based; details: 20 μM
Text: as §3

[4] = test system: RD rhabdomyosarcoma cells; assay: Cell survival / crystal violet staining of RD cells; format: cell-based; details: 20 μM
Description: as §1, §3

U87 cells = assay: Microarray analysis of U87 cells treated with compounds (gene ontology, GSEA); format: cell-based, human; details: gene set downregulated by siAVIL
Description: (§4) The effect of the three compounds on LIN28B expression was tested. […] To test whether the compounds can trigger transcriptome response similar to siAVIL, a microarray analysis of the U87 cells treated with these compounds was performed. Strikingly, cells treated with all three compounds had similar transcriptome profiles when compared to that of the siAVIL transfected cells, by both gene ontology and Gene Set Enrichment analyses (example in FIGS. 7F and 7G).

[5] = test system: GBM lines (U87, A172, U251, and T98G); assay: Cellular assays using GBM cell lines and immortalized astrocytes; format: cell-based, human; details: four GBM lines (U87, A172, U251, T98G) versus astrocytes
Description: as §1
To investigate whether AVIL is a viable drug target, a platform of small-molecule microarray was utilized (Bradner et al., 2006a; Bradner et al., 2006b) in order to identify compounds that interact with the AVIL protein. 50,000 small molecules were screened with recombinant advillin protein, including commercially available compounds, products of diversity-oriented synthesis, and known bioactive compounds. From these compounds, 82 advillin-interacting compounds were identified (FIG. 7A). […] Pubchem ID for the three compounds are as follows: Compound A is CID 56750508, Compound B is CID 56890068, and Compound C is CID 70768068.

glioblastoma cells (U87) = assay: IC50 for inhibiting cell growth in glioblastoma cells (U87); format: cell-based, human; details: inhibition of cell growth
Description: as §1, §2

[6] = target: T1, advillin recombinant protein (AVIL) (Homo sapiens, UniProt O75366); assay: Thermal shift assay; format: binding; details: for binding with advillin recombinant protein: thermal shift assay
T1 construct: MBP (N, cleaved yes); made in house; host or cells: E. coli BL21 (DE3)
T1 sequence (O75366 1-819): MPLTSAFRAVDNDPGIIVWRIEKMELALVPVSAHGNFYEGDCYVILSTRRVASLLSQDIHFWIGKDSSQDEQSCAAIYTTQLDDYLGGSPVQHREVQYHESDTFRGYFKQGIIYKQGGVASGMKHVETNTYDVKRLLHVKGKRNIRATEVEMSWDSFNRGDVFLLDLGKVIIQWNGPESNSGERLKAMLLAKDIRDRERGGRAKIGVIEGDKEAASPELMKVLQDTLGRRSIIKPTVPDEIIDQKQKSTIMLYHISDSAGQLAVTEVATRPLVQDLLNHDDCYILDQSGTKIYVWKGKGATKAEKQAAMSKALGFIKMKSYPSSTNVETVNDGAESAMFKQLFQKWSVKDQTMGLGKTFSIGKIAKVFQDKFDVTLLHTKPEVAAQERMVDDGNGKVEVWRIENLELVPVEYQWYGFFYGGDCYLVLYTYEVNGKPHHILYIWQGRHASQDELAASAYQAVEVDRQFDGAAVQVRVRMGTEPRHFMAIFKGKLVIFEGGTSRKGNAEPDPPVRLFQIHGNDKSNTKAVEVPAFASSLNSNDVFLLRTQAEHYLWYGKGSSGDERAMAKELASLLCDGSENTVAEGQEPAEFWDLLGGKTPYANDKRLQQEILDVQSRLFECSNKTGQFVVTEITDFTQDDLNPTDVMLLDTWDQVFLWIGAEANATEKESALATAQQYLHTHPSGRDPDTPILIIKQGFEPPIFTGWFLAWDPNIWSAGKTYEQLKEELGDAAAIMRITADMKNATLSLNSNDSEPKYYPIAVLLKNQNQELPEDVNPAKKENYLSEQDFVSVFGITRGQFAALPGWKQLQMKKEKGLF
Description: Protein purification. The sequence for human Advillin (AVIL) was cloned into the pMAL-c4x vector. The corresponding plasmid was transformed into BL21 (DE3) cells. Expression of MBP-AVIL was induced at OD600≈0.7 by the addition of 1 mM IPTG, and continued for 18 hrs at 23° C. Harvested cells were subsequently resuspended in 20 mM Tris-HCl pH 7.4, 200 mM NaCl, 1 mM EDTA, 1 mM DTT (Wash Buffer), supplemented with Complete Protease Inhibitor Cocktail (Roche), lysed in Emulsiflex C3 (AVESTIN) and cell debris was removed by centrifugation. MBP-AVIL was immobilized on Amylose Resin (New England BioLabs) followed by extensive washing (>50 column volumes) with Wash Buffer. Protein was eluted with Wash Buffer supplemented with 10 mM Maltose. After overnight incubation with TEV protease, MBP-tag was removed by size exclusion on HiLoad 16/600 Superdex 200 pg columns, previously equilibrated to 20 mM HEPES, pH 7.4, 50 mM NaCl, 1 mM DTT (Protein Buffer). Recombinant AVIL was flash-frozen in liquid nitrogen and stored in −80° C.
Thermal shift assay. SYPRO Orange (ThermoFisher Scientific) was added to 0.5 mg/ml AVIL (in Protein Buffer) in a 1:4500 ratio. 2.5 uL increasing concentrations of candidate compounds were added to 22.5 μL of AVIL/SYPRO Orange mixture on a 96 well plate (10% final concentration of DMSO). Protein unfolding was measured in a CFX96 qPCR (Bio-Rad) instrument with 0.2° C./15 sec steps, over the range of 20-90° C.

U87 xenograft = U87 xenograft model, intra-tumor injection; format: in vivo, NIH-III Nude mice
Description: Astrocytes stably expressing AVIL or an empty vector were injected subcutaneously into the flanks of NIH-III Nude mice. Around 2 million cells were used per injection. The animals were monitored twice a week. For drug treatment, 1.5 million U87 cells were injected subcutaneously into the flanks of NIH-III Nude mice. Compound 56750508 was dissolved in 50% DMSO, 15% ethanol, and 35% water. After tumors became visible (around 2 weeks), 50 ul drug solution or solvent was injected intra-tumorly. Three injections were performed with two day intervals.
as §4

[7] = three intra-tumor injections with two day intervals, versus solvent control, at harvest

| SMILES | IC50 ([1]; Homo sapiens, Astrocyte) [µM] | IC50 (glioblastoma cells (U87); Homo sapiens) [µM] | also measured |
| --- | --- | --- | --- |
| Nc1nccc(N2CCCC(CO)(CCCc3ccccc3)C2)n1 (stereo not shown) [Compound A] | 55 | 9 | effect on RH30 cells [2]: most if not all of the RH30 and RD cells were wiped out; effect on MSC cells [3]: no significant effect; effect on RD cells [4]: most if not all of the RH30 and RD cells were wiped out; GSEA enrichment score (U87 cells): highest GSEA enrichment score; IC50 values in GBM lines compared to astrocytes [5]: significantly different IC50 values; melting temperature (Tm) shift of AVIL protein ([6]; increasing concentrations of compound): dose-dependent melting temperature (Tm) shift; binding with advillin recombinant protein [6]: confirmed binding; side effect in the animals (U87 xenograft; three injections): did not observe any obvious side effect; tumor volume (U87 xenograft; [7]): significantly smaller; tumor weight (U87 xenograft; [7]): significantly smaller |
| c1ccc(CCC2CCN(CC3[C@H]4CNC[C@@H]34)CC2)cc1 (stereo partly shown) [Compound B] | – | – | IC50 values in GBM lines compared to astrocytes [5]: significantly different IC50 values; binding with advillin recombinant protein [6]: confirmed binding |
| CN(Cc1ccc(Oc2ccccc2)cc1)C(=O)C1C[C@@H](O)CN1 (stereo partly shown) [Compound C] | – | – | IC50 values in GBM lines compared to astrocytes [5]: significantly different IC50 values; binding with advillin recombinant protein [6]: confirmed binding |
| Cc1nccc(N2CCCC(CO)(CCCc3ccccc3)C2)n1 (stereo not shown) [Compound I] | 80 | 19 | – |
| Nc1cc(N2CCC(CO)(CCCc3ccccc3)CC2)nc(N)n1 [D] | 51 | 2.5 | – |
| Nc1nccc(N2CCCC(CCc3ccccc3)C2)n1 (stereo not shown) [E] | 30 | 1 | – |
| Nc1nccc(N2CCC(CO)(CCCc3ccccc3)CC2)n1 [F] | 28 | 4 | – |
| Nc1cc(N2CCCC(CO)(CCCc3ccccc3)C2)nc(N)n1 (stereo not shown) [G] | > 80 | 10 | – |
| Nc1cc(N2CCCC(CO)(CCCc3ccccc3)C2)nc(N)n1 (stereo not shown) [H] | – | – | IC50 [1]: 59 µM; IC50 (glioblastoma cells (U87)): 8 µM |
| Nc1cc(N2CCCC(CO)(CCCc3ccccc3)C2)ncn1 (stereo not shown) [J] | > 80 | 20 | – |
| Nc1cc(N2CCCC(CCCc3ccccc3)(C(=O)O)C2)nc(N)n1 (stereo not shown) [K] | 34 | 39 | – |
| CCCC1(CO)CCCN(c2cc(N3CCN(C)CC3)nc(N)n2)C1 (stereo not shown) [L] | > 80 | > 80 | – |
